“Also recorded” adds a separate entry of the source.
Tests used:
[1] = test system: rats bearing the AH130 tumour; assay: Muscle mass during cancer-induced cachexia, rats with AH130 tumour; type: in vivo, rat; details: 1 μg/g bodymass s.c. twice daily for 6 d, six hind limb muscles, FIG. 18
Description: In this study, 21 male rats (three months of age) were allocated at random into three groups of seven. Group one was injected i.p. with sterile saline (non-cancer controls), groups two and three were inoculated i.p. with 100 μl of the AH130 tumour (Baracos et al 1995). Groups one and two were injected twice daily s.c. for six days with sterile saline, while group three was injected twice daily s.c. for six days with 1 μg/g bodymass with roMSV47. Rats were killed at day six and, at death, skeletal muscles (biceps femoris, gastrocnemius, tibialis anterior, quadriceps femoris, plantaris and soleus) were excised from the right hind limb of each rat and the wet mass expressed as a percent of the initial body mass on day 0.
The ascites hepatoma 130 (AH130) was obtained as a gift from Dr Vicki Baracos (University of Alberta, Edmonton, Alberta, Canada) and stored in cryovials in liquid nitrogen in a solution of 50% DMSO and 10% BSA. An aliquot was retrieved and thawed and 1 ml was injected i.p. into each of three donor rats and allowed to grow for seven days. The rats were killed by CO2 asphyxiation followed by cervical dislocation. […] The volume of ascites in the peritoneal cavity was removed with a syringe and the volume recorded. Six muscles in the right hind limb (biceps femoris, gastrocnemius, soleus, plantaris, tibialis anterior and quadriceps femoris) were excised and their mass recorded. […]

creatine kinase (CK) = assay: Creatine kinase (CK-NAC) assay of blood samples of AH130 tumour rats; type: in vivo, rat; details: 1 μg/g bodymass s.c. twice daily for 6 d, day 6, FIG. 19
Description: The ascites hepatoma 130 (AH130) was obtained as a gift from Dr Vicki Baracos (University of Alberta, Edmonton, Alberta, Canada) and stored in cryovials in liquid nitrogen in a solution of 50% DMSO and 10% BSA. An aliquot was retrieved and thawed and 1 ml was injected i.p. into each of three donor rats and allowed to grow for seven days. The rats were killed by CO2 asphyxiation followed by cervical dislocation. The ascites was harvested and 100 μl was injected i.p. into each of 14 recipient male rats (280±6 g). An equal volume of saline was injected i.p. into seven control rats. Of the 14 rats inoculated with the AH130 tumour, seven were injected s.c. twice daily with roMSV47 at a dose of 1 μg/g body mass diluted in sterile saline to a volume of 1 ml. […] The volume of ascites in the peritoneal cavity was removed with a syringe and the volume recorded. Six muscles in the right hind limb (biceps femoris, gastrocnemius, soleus, plantaris, tibialis anterior and quadriceps femoris) were excised and their mass recorded.
CK-NAC was assayed in a commercial kit (Randox laboratories Ltd, UK). Reaction volumes were scaled down proportionately so that the assays could be performed in 96-well microtitre plates with samples assayed in triplicate (CK-NAC) and read as a change in U/L per min as per manufacturer's instructions.

myogenin = assay: Myogenin protein in differentiating C2C12 myoblasts (Western blot); type: cell-based, murine; details: 0, 0.1, 1, 10 μg/ml, 72 h in differentiation medium, FIG. 4
Description: To investigate whether roMSV65 regulates myoblast differentiation or myotube hypertrophy, C2C12 myoblast cultures were employed. Levels of well-established early and late molecular markers of myogenic differentiation like myogenin and dMHC were measured in the presence and absence of roMSV65 protein.
C2C12 myoblasts were seeded in 10 cm diameter tissue culture plates (Nunc, Roskilde, Denmark) at a cell density of 25,000 cells per cm^2 in 10 ml of Dulbecco's modified Eagle's medium (DMEM, Invitrogen, California) supplemented with foetal bovine serum (FBS, 10% v/v, Invitrogen), penicillin (1×10^5 IU/l, Sigma, St Louis, Mo., USA) and streptomycin (100 mg/I, Sigma) buffered with NaHCO3 containing phenol red (7.22 nmol/l) as a pH indicator, and incubated overnight at 37° C. with 5% CO2.
To study myoblast differentiation, the medium was replaced with the test medium: DMEM with 2% Horse Serum supplemented with 0, 0.1, 1 or 10 μg/ml roMSV65 in three replicates for each concentration (n=3). […]
Cells were removed from the plate by trypsin treatment, washed with phosphate buffered saline (PBS, Oxoid, UK) and resuspended in 200 μl of lysis buffer (10 mM Hepes pH 7.9, 1.5 mM MgCl2, 10 mM KCl, 0.5% NP40, one Complete protease inhibitor tablet [Roche Diagnostics, USA] per 50 ml buffer). […] Band intensities were measured with a GS800 densitometer (Bio-Rad, CA).

primary ovine myoblasts = assay: Proliferation assay of primary ovine myoblasts (methylene blue); type: cell-based; details: roMSV65 0 to 10 μg/ml, 72 h, FIG. 3B
Description: Myoblasts were seeded in 96-well tissue culture plates (Nunc, Roskilde, Denmark) at a cell density of 1000 cells per well in 200 μl of Dulbecco's modified Eagle's medium (DMEM, Invitrogen, California) supplemented with foetal bovine serum (FBS, 10% v/v, Invitrogen), penicillin (1×10^5 IU/l, Sigma, St Louis, Mo., USA) and streptomycin (100 mg/l, Sigma) buffered with NaHCO3 containing phenol red (7.22 nmol/l) as a pH indicator, and incubated overnight at 37° C. with 5% CO2. Medium was replaced with DMEM 10% FBS test medium containing 0, 0.001, 0.003, 0.01, 0.03, 0.1, 0.3, 1, 3 or 10 μg/ml oMSV65 in a semi-random arrangement of eight replicates (n=8) for each test medium. Plates were incubated at 37° C. with 5% CO2 for 72 hours, and then the medium was removed. The wells were washed with 200 μl of phosphate buffered saline (PBS, Oxoid, UK) and fixed with 100 μl of 10% formaldehyde, 0.9% NaCl solution for at least one hour. The fixative was then removed and 100 μl of 1% methylene blue stain in 0.01 M borate buffer (pH 8.5) was added to each well and incubated for 30 min at room temperature. Excess stain was removed by four sequential washes in borate buffer. Methylene blue was eluted from the cells by the addition of 100 μl 1:1 (v/v) ethanol/0.1 HCl. The plates were gently shaken and the absorbance was measured at 655 nm using a microplate photometer (FIGS. 3a and 3b).

Molecule	reduction of generalised wasting of skeletal muscle induced by cancer [1] [%]	concentrations of creatine kinase (CK) (creatine kinase (CK))	myogenin protein levels in C2C12 myotubes (myogenin)	myoblast cell growth (proliferation) (primary ovine myoblasts)
roMSV47: 47 amino acid C-terminal mature ovine MSV fragment (SEQ ID NO: 50), recombinant from E. coli (IIFLEVYIQFCSILGEAVFKRQSKSIHFCQNFKIIACLCNTAAFRMK; Ovis aries)	20	partially restores concentrations of CK; also recorded: not as markedly reduced		
roMSV65: 65 amino acid C-terminal peptide of ovine MSV (SEQ ID NO: 49) expressed as recombinant protein in E. coli (protein, Ovis aries) VHFYTPPYGQWIFHKERKIIFLEVYIQFCSILGEAVFKRQSKSIHFCQNFKIIACLCNTAAFRMK			dose-dependently increases myogenin protein levels	stimulate myoblast cell growth in a dose dependent manner

— patent publication US8455448B2, “Myostatin isoform” (Myostin Therapeutics Pty Ltd, priority 2004, dated 2013)
